“Also recorded” adds a separate entry of the source.
Legend:
[1] = test system: normal Sprague-Dawley rats; assay: Effects of cospeptin on blood pressure and heart rate (tail-cuff method); assay type: in vivo, rat; settings: intraperitoneal administration, conscious normal rats
Method: Effects of cospeptin on blood pressure and heart rate in normal […] rats. Blood pressure measurements in conscious male Sprague-Dawley rats (7-9 weeks of age) were made in animals preadapted to the measurement procedure. Indirect systolic pressure was determined by a programmable NIBP system using the tail-cuff method (Columbus Instruments, Columbus, Ohio). Following attachment of the pressure transducer, rats were left undisturbed for 10 min before baseline measurements that spanned a 15-min interval. Following baseline measurements, rats were injected intraperitoneally with varying doses of hormones. Blood pressure and heart rate were monitored for 50 min at 25-sec intervals. Changes in blood pressure were calculated as the average of thirty measurements performed within each 5-min interval.

[2] = biological target: cospeptin E receptor in pituitary tissues; assay: Saturation binding of 125I-Tyr0-cospeptin E to pituitary homogenate; settings: saturation curve, rat pituitary gland
Method: (§1) Radiolabeling of cospeptin. Peptide iodination was performed according to the IODO-GEN procedure (Pierce, Upland, Ind.). The mixture of Tyr0-cospeptin E (20 μg) and 1 mCi [^125I] Nal was transferred to precoated IODO-GEN vials before incubation at room temperature for 4 min. The ^125I-labeled peptide was applied to a Sep-Pak C18 cartridge (Waters, Milford, Mass.) for purification and was eluted with 60% acetonitrile/0.1%TFA. The purified tracer was stored at −20° C.
Receptor binding experiments. Homogenates were prepared from different tissues of adult rats. Binding assays were performed in glass tubes. Routinely, tissue homogenates were incubated in 100 μl of binding buffer (PBS with 0.1% bovine serum albumin) for 16 h at room temperature with varying concentrations of ^125I-Tyr0-cospeptin E (100, 000 cpm˜2 nM) in the presence or absence of unlabelled Tyr0-cospeptin E (in 5,000 fold excess). After incubation, the tubes were centrifuged for 10 min at 10,000×g, and the pellet was washed twice in ice-cold PBS. Finally, Tyr0-cospeptin E bound to the tissues was counted using a gamma-spectrophotometer. Specifically bound counts were calculated by subtracting unspecific counts determined in the presence of 5,000-fold excess of nonlabeled peptide from total counts bound to the tissues. […]

[3] = test system: cospeptin receptors in the pituitary; assay: Displacement of 125I-Tyr0-cospeptin E binding in pituitary (competition studies); set-up: species or system rat; settings: competition with 125I-Tyr0-cospeptin E
Method: as §1
Receptor binding experiments. Homogenates were prepared from different tissues of adult rats. Binding assays were performed in glass tubes. Routinely, tissue homogenates were incubated in 100 μl of binding buffer (PBS with 0.1% bovine serum albumin) for 16 h at room temperature with varying concentrations of ^125I-Tyr0-cospeptin E (100, 000 cpm˜2 nM) in the presence or absence of unlabelled Tyr0-cospeptin E (in 5,000 fold excess). After incubation, the tubes were centrifuged for 10 min at 10,000×g, and the pellet was washed twice in ice-cold PBS. Finally, Tyr0-cospeptin E bound to the tissues was counted using a gamma-spectrophotometer. Specifically bound counts were calculated by subtracting unspecific counts determined in the presence of 5,000-fold excess of nonlabeled peptide from total counts bound to the tissues. For displacement ^125I-Tyr0-cospeptin E binding, increasing concentrations of Tyr0-cospeptin E or other peptides or analogues (cospeptin E, cospeptin A, cospeptin B, cospeptin D, cospeptin F or cosmedin B) were added.

C57/BL6 male mice = assay: Effects of peptides on gastric emptying activity; assay type: in vivo, mouse; settings: intraperitoneal injection, fed mice, stomach weighed after treatment
Method: Effects of peptides on gastric emptying activity Eight-week-old C57/BL6 male mice deprived of food for 20 h were given food pellets for 90 min before intraperitoneal injection with different hormones or saline. After treatment, mice were deprived of food again and killed 90 min later. The stomach was excised at the pylorus and cardia before weighing. Gastric emptying was calculated by comparing the stomach weight of treated mice to the stomach weight of control mice killed at the time of hormone injection. The rates of gastric emptying were calculated by the formula (wet weight of stomach in fed animals killed at 0 h minus wet weight at […] after treatment/wet weight of stomach in fed animals killed at 0 h)×100.

rat ileal tissue strips = assay: Ileum contraction assay (organ bath, ileal muscle strips); settings: for muscle contraction of ileal strips: cumulative concentrations 10 nM to 10 μM; for magnitude of contraction relative to maximum response to muscarinic agonist 5-methylfurmethide: normalised to 5-methylfurmethide maximum
Method: Ileum contraction assay. Female rats (˜350 g) were euthanized with CO2 and the abdominal cavity was opened to expose the intestines. A 3-cm length of ileum was removed, cleared of any adhering tissue and longitudinal strips of ileal muscle (2×5 mm) were cut. On average, six preparations were obtained from each animal. The tissues were suspended in 20-ml organ baths containing Krebs-Henseleit solution maintained at 32° C. containing 2.5 mM Ca^2+ and gassed continuously with 95% O2/5% CO2. The tissues were placed under a loading tension of 1 g. The tissue was equilibrated for 90 min after which a dose response curve of the peptide of interest was obtained at 0.5 log unit cumulative incremental concentrations from 10 nM to 10 μM.

Row | Substance | blood pressure [1] | heart rate [1] | order of affinity to the cospeptin receptors [3] | gastric emptying activity (C57/BL6 male mice) | further results
1 | human cospeptin Form E, SEQ ID NO: 10, AGIVQEDVQPPGLKVWSDPFG [cospeptin E] | suppressed blood pressure | decreased heart rate | cospeptin E=Tyr0-cospeptin E>cospeptin A,B>>cospeptin F>>cosmedin | – | Kd [2]: 5 nM
2 | human cosmedin Form B, SEQ ID NO: 4, NWTPQAMLYLKGAQG; presumed amidated at carboxyl terminus [cosmedin B] | – | – | cospeptin E=Tyr0-cospeptin E>cospeptin A,B>>cospeptin F>>cosmedin | effectively inhibits gastric emptying | gastric emptying activity (C57/BL6 male mice; listed as cosmedin-B): suppressed gastric emptying activity in a dose-dependent manner; muscle contraction of ileal strips (rat ileal tissue strips): concentration dependent muscle contraction; muscle contraction of ileal strips (rat ileal tissue strips; listed as cosmedin-B): produced a concentration-dependent muscle contraction; also recorded: direct action of cosmedin-B on muscle contraction; magnitude of contraction relative to maximum response to muscarinic agonist 5-methylfurmethide (rat ileal tissue strips): comparable to that of the acetylcholine muscarinic receptor agonist 5-methylfurmethide; magnitude of contraction relative to maximum response to muscarinic agonist 5-methylfurmethide (rat ileal tissue strips; listed as cosmedin-B): comparable to that mediated by the muscarinic receptor stimulation; potency pA50 (rat ileal tissue strips; rat ileal tissue strips): 6.05±0.17
3 | cospeptin A: human cospeptin Form A, SEQ ID NO: 6, FYPIYFRPLMRLEEYKKEQAINRAGIVQEDVQPPGLKVWSDPFG (KRNWTPQAMLYLKGAQGHRFISDQSRRK) | minimal effects | decreased heart rate | cospeptin E=Tyr0-cospeptin E>cospeptin A,B>>cospeptin F>>cosmedin | – | –
4 | cospeptin B: human cospeptin Form B, SEQ ID NO: 7, PLMRLEEYKKEQAINRAGIVQEDVQPPGLKVWSDPFG (KRNWTPQAMLYLKGAQGRRFLSDQSRRK) | suppressed blood pressure | – | cospeptin E=Tyr0-cospeptin E>cospeptin A,B>>cospeptin F>>cosmedin | exhibited gastric emptying activities; also recorded: effectively inhibits gastric emptying | –
5 | cospeptin F: human cospeptin Form F, SEQ ID NO: 11, VWSDPFG (FYPIYFRPLLRLEEYQKEQAVNRAGIVQEDVQPPGLKVWSDPFGRK; rat) | – | – | cospeptin E=Tyr0-cospeptin E>cospeptin A,B>>cospeptin F>>cosmedin | – | –
